Experimental data published in the supplement of paper PMC10307832.

How the values were obtained:
Experiment in all cases: relative viability (nuclei count vs DMSO), 5 days (fraction); higher = more cells survive
[1] = system: H3255
Procedure, shortened: (§1)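 Values are medians from duplicate plates. Each reflects relative viability, defined as the nuclei count of treated wells over that of vehicle wells. Lung cancer cell lines in 1536-well plates were pin-tool dosed one day after seeding with one drug alone or with a fixed anchor-drug dose plus five library-drug doses (not always all listed) in √10 steps, then fixed, stained and imaged at 4× after 5 days.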

[2] = system: NCI-H520
Procedure, shortened: as §1

[3] = system: NCI-H2087
Procedure, shortened: as §1

[4] = system: NCI-H1793
Procedure, shortened: as §1

[5] = system: ChaGo-K-1
Procedure, shortened: as §1

[6] = system: NCI-H1563
Procedure, shortened: as §1

[7] = system: NCI-H1651
Procedure, shortened: as §1

[8] = system: SK-MES-1
Procedure, shortened: as §1

[9] = system: LCLC-103H
Procedure, shortened: as §1

[10] = system: LCLC-97TM1
Procedure, shortened: as §1

[11] = system: NCI-H1993
Procedure, shortened: as §1

[12] = system: NCI-H23
Procedure, shortened: as §1

[13] = system: NCI-H322M
Procedure, shortened: as §1

[14] = system: EMC-BAC-2
Procedure, shortened: as §1

[15] = system: EPLC-272H
Procedure, shortened: as §1

[16] = system: UMC-11
Procedure, shortened: as §1

[17] = system: NCI-H1395
Procedure, shortened: as §1

[18] = system: NCI-H650
Procedure, shortened: as §1

[19] = system: HCC-827
Procedure, shortened: as §1

[20] = system: NCI-H1355
Procedure, shortened: as §1

[21] = system: NCI-H2405
Procedure, shortened: as §1

[22] = system: NCI-H1944
Procedure, shortened: as §1

[23] = system: NCI-H2085
Procedure, shortened: as §1

In the case of `COc1cc(N2CCC(C(N)=O)CC2)ccc1Nc1nc(N)c(Cl)c(Nc2ccccc2S(=O)(=O)C(C)C)n1` [HG-5-88-01] + COc1cc2c(Oc3ccc(NC(=O)C4(C(=O)Nc5ccc(F)cc5)CC4)cc3F)ccnc2cc1OCCCN1CCOCC1 [Foretinib] (partner 0.25 µM), the relative viability ([1]; first compound 0.04 µM) was 0.854, the relative viability ([1]; first compound 0.1265 µM) was 0.874 and the relative viability ([1]; first compound 0.4 µM) was 0.856. The relative viability ([1]; first compound 4 µM) was 0.649, the relative viability ([2]; first compound 0.04 µM) was 0.705 and the relative viability ([2]; first compound 0.1265 µM) was 0.942. It also gave a relative viability ([2]; first compound 0.4 µM) of 0.629, a relative viability ([2]; first compound 1.265 µM) of 0.828 and a relative viability ([2]; first compound 4 µM) of 0.76. The relative viability ([3]; first compound 0.04 µM) was 1.13, the relative viability ([3]; first compound 0.1265 µM) was 1.24 and the relative viability ([3]; first compound 0.4 µM) was 1.06. The relative viability ([3]; first compound 1.265 µM) was 1.14, the relative viability ([3]; first compound 4 µM) was 0.864 and the relative viability ([4]; first compound 0.1265 µM) was 0.787. The relative viability ([4]; first compound 0.4 µM) was 0.615, the relative viability ([4]; first compound 4 µM) was 0.423 and the relative viability ([5]; first compound 0.04 µM) was 0.761. It also gave a relative viability ([5]; first compound 0.1265 µM) of 1.03, a relative viability ([5]; first compound 0.4 µM) of 0.804 and a relative viability ([5]; first compound 1.265 µM) of 0.942. For the same compound, the relative viability ([5]; first compound 4 µM) was 0.909, the relative viability ([6]; first compound 0.04 µM) was 1 and the relative viability ([6]; first compound 0.1265 µM) was 1.01. The relative viability ([6]; first compound 0.4 µM) was 0.963, the relative viability ([6]; first compound 1.265 µM) was 0.866 and the relative viability ([6]; first compound 4 µM) was 0.833. It also gave a relative viability ([7]; first compound 0.04 µM) of 0.793, a relative viability ([7]; first compound 0.1265 µM) of 0.922 and a relative viability ([7]; first compound 0.4 µM) of 0.998. The relative viability ([7]; first compound 1.265 µM) was 0.762, the relative viability ([7]; first compound 4 µM) was 1.02 and the relative viability ([8]; first compound 0.04 µM) was 0.875. It also gave a relative viability ([8]; first compound 0.1265 µM) of 0.808, a relative viability ([8]; first compound 0.4 µM) of 0.827 and a relative viability ([8]; first compound 1.265 µM) of 0.684. It also gave a relative viability ([8]; first compound 4 µM) of 0.996, a relative viability ([9]; first compound 0.04 µM) of 0.767 and a relative viability ([9]; first compound 0.1265 µM) of 0.745. It also gave a relative viability ([9]; first compound 0.4 µM) of 0.745, a relative viability ([9]; first compound 1.265 µM) of 0.757 and a relative viability ([9]; first compound 4 µM) of 0.75. The relative viability ([10]; first compound 0.04 µM) was 0.893, the relative viability ([10]; first compound 0.1265 µM) was 0.972 and the relative viability ([10]; first compound 0.4 µM) was 0.882. For the same compound, the relative viability ([10]; first compound 1.265 µM) was 0.864, the relative viability ([10]; first compound 4 µM) was 0.326 and the relative viability ([11]; first compound 0.04 µM) was 0.739. The relative viability ([11]; first compound 0.1265 µM) was 0.727, the relative viability ([11]; first compound 0.4 µM) was 0.725 and the relative viability ([11]; first compound 1.265 µM) was 0.586. It also gave a relative viability ([11]; first compound 4 µM) of 0.623, a relative viability ([12]; first compound 0.04 µM) of 1.08 and a relative viability ([12]; first compound 0.1265 µM) of 1.06. The relative viability ([12]; first compound 0.4 µM) was 0.972, the relative viability ([12]; first compound 1.265 µM) was 0.729 and the relative viability ([12]; first compound 4 µM) was 0.515. The relative viability ([13]; first compound 0.04 µM) was 0.927, the relative viability ([13]; first compound 0.1265 µM) was 0.782 and the relative viability ([13]; first compound 0.4 µM) was 0.635. It also gave a relative viability ([13]; first compound 4 µM) of 0.759, a relative viability ([14]; first compound 0.04 µM) of 1.06 and a relative viability ([14]; first compound 0.1265 µM) of 1.09. It also gave a relative viability ([14]; first compound 0.4 µM) of 0.973, a relative viability ([14]; first compound 1.265 µM) of 0.787 and a relative viability ([14]; first compound 4 µM) of 0.795. For the same compound, the relative viability ([15]; first compound 0.04 µM) was 0.761, the relative viability ([15]; first compound 0.1265 µM) was 0.735 and the relative viability ([15]; first compound 0.4 µM) was 0.593. The relative viability ([15]; first compound 1.265 µM) was 0.472, the relative viability ([15]; first compound 4 µM) was 0.0478 and the relative viability ([16]; first compound 0.04 µM) was 1.09. For the same compound, the relative viability ([16]; first compound 0.1265 µM) was 1.07, the relative viability ([16]; first compound 1.265 µM) was 0.923 and the relative viability ([16]; first compound 4 µM) was 0.371. It also gave a relative viability ([17]; first compound 0.04 µM) of 0.988, a relative viability ([17]; first compound 0.1265 µM) of 1.06 and a relative viability ([17]; first compound 0.4 µM) of 1.04. For the same compound, the relative viability ([17]; first compound 1.265 µM) was 0.859, the relative viability ([17]; first compound 4 µM) was 0.999 and the relative viability ([18]; first compound 0.04 µM) was 1.1. For the same compound, the relative viability ([18]; first compound 0.1265 µM) was 1.18, the relative viability ([18]; first compound 0.4 µM) was 0.949 and the relative viability ([18]; first compound 1.265 µM) was 0.602. It also gave a relative viability ([18]; first compound 4 µM) of 0.719, a relative viability ([19]; first compound 0.04 µM) of 1.06 and a relative viability ([19]; first compound 0.1265 µM) of 1.12. The relative viability ([19]; first compound 0.4 µM) was 1.05, the relative viability ([19]; first compound 1.265 µM) was 0.965 and the relative viability ([19]; first compound 4 µM) was 0.579. The relative viability ([20]; first compound 0.04 µM) was 1.01, the relative viability ([20]; first compound 0.1265 µM) was 1.05 and the relative viability ([20]; first compound 0.4 µM) was 0.929. It also gave a relative viability ([20]; first compound 1.265 µM) of 0.96, a relative viability ([20]; first compound 4 µM) of 0.696 and a relative viability ([21]; first compound 0.04 µM) of 1.08. For the same compound, the relative viability ([21]; first compound 0.1265 µM) was 1.03, the relative viability ([21]; first compound 0.4 µM) was 0.974 and the relative viability ([21]; first compound 1.265 µM) was 0.571. The relative viability ([21]; first compound 4 µM) was 0.895, the relative viability ([22]; first compound 0.04 µM) was 0.874 and the relative viability ([22]; first compound 0.1265 µM) was 0.884. For the same compound, the relative viability ([22]; first compound 0.4 µM) was 0.917, the relative viability ([22]; first compound 1.265 µM) was 0.883 and the relative viability ([22]; first compound 4 µM) was 0.886. It also gave a relative viability ([23]; first compound 0.04 µM) of 0.852, a relative viability ([23]; first compound 0.1265 µM) of 0.947 and a relative viability ([23]; first compound 0.4 µM) of 0.907. It also gave a relative viability ([23]; first compound 1.265 µM) of 0.704 and a relative viability ([23]; first compound 4 µM) of 0.807.
